Data reported in PubChem BioAssay (NCI).
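Tested at 5 concentrations; 48 h exposure; 96-well plates; endpoints linearly interpolated, else capped at highest concentration. Abbreviation: GI50, concentration required for 50% inhibition of growth. At the TGI there is no net growth.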

Legend:
Assay in all cases: NCI tumour cell line growth inhibition, 48 h
OVCAR-5 ovarian = test system: OVCAR-5 ovarian
OVCAR-4 ovarian = test system: OVCAR-4 ovarian
SF-539 CNS = test system: SF-539 CNS
IGROV1 ovarian = test system: IGROV1 ovarian
SK-MEL-5 melanoma = test system: SK-MEL-5 melanoma
NCI/ADR-RES ovarian = test system: NCI/ADR-RES ovarian
HOP-62 NSCLC = test system: HOP-62 NSCLC
RPMI-8226 leukemia = test system: RPMI-8226 leukemia
MDA-N = test system: MDA-N
SK-MEL-28 melanoma = test system: SK-MEL-28 melanoma
786-0 renal = test system: 786-0 renal
OVCAR-3 ovarian = test system: OVCAR-3 ovarian
NCI-H23 lung = test system: NCI-H23 lung
LOX IMVI melanoma = test system: LOX IMVI melanoma
COLO 205 colon = test system: COLO 205 colon
DU-145 prostate = test system: DU-145 prostate
PC-3 prostate = test system: PC-3 prostate
SNB-75 CNS = test system: SNB-75 CNS
T-47D breast = test system: T-47D breast

Row | SMILES | TGI (OVCAR-5 ovarian) | TGI (OVCAR-4 ovarian) | TGI (SF-539 CNS) | TGI (IGROV1 ovarian) | TGI (SK-MEL-5 melanoma) | TGI (NCI/ADR-RES ovarian) | TGI (HOP-62 NSCLC) | TGI (RPMI-8226 leukemia) | TGI (MDA-N) | TGI (SK-MEL-28 melanoma) | TGI (786-0 renal) | TGI (OVCAR-3 ovarian) | TGI (NCI-H23 lung) | TGI (LOX IMVI melanoma) | TGI (COLO 205 colon) | TGI (DU-145 prostate) | TGI (PC-3 prostate) | TGI (SNB-75 CNS) | GI50 (OVCAR-3 ovarian) | TGI (T-47D breast)
1 | C=CC[C@H](O)[C@@](NC(=O)OCc1ccccc1)(Sc1ccc(C)cc1)C(F)(F)F | 75.4 µM | > 100 µM | 29.7 µM | 24 µM | > 100 µM | > 100 µM | 78.1 µM | 71.6 µM | 46.6 µM | > 100 µM | 32.7 µM | 48.5 µM | 70.2 µM | 16.9 µM | 39.1 µM | > 100 µM | > 100 µM | – | – | –
2 | CCCc1c(O)c2ccccc2[nH]c1=O | > 100 µM | > 100 µM | > 100 µM | > 100 µM | > 100 µM | > 100 µM | > 100 µM | > 100 µM | > 100 µM | > 100 µM | > 100 µM | > 100 µM | > 100 µM | > 100 µM | > 100 µM | > 100 µM | > 100 µM | > 100 µM | – | –
3 | COc1ccc(-c2cc(=O)c3cc4c(cc3[nH]2)OCO4)c(OC)c1 | – | > 100 µM | > 100 µM | > 100 µM | 80.1 µM | – | > 100 µM | > 100 µM | – | > 100 µM | > 100 µM | > 100 µM | > 100 µM | > 100 µM | > 100 µM | – | – | 31.2 µM | > 100 µM | –
4 | N#Cc1nc(/C=C/c2cccs2)oc1N | > 100 µM | – | – | > 100 µM | > 100 µM | – | > 100 µM | > 100 µM | > 100 µM | > 100 µM | > 100 µM | – | – | > 100 µM | – | > 100 µM | > 100 µM | > 100 µM | – | –
5 | N[C@@H]1c2c(Br)sc(Br)c2C(=O)[C@H]1Br | > 100 µM | 89.5 µM | > 100 µM | 45.9 µM | > 100 µM | 53.8 µM | > 93.6 µM | 39.5 µM | – | 54.8 µM | 63.5 µM | > 89.8 µM | 57.4 µM | 33.3 µM | > 68 µM | > 100 µM | > 84.8 µM | > 100 µM | – | 84 µM
6 | O=C(CSc1nc(-c2ccccc2)c(-c2ccccc2)[nH]1)N/N=C/c1ccc([N+](=O)[O-])cc1 | – | 58.8 µM | 29.9 µM | 33.8 µM | 31.1 µM | – | 33.7 µM | 52.1 µM | – | 31.2 µM | 30.5 µM | 30 µM | 33.9 µM | 30.4 µM | 30.7 µM | – | – | 47.8 µM | – | –
7 | COc1cc2c(OC)c3cc(C)oc(=O)c3c(O)c2c(O)c1-c1c(OC)cc2c(OC)c3cc(C)oc(=O)c3c(O)c2c1O | 40.9 µM | > 100 µM | 35.7 µM | 31.1 µM | 35.8 µM | 35.7 µM | 30.1 µM | 40.2 µM | – | 53.5 µM | 60.8 µM | 33.9 µM | 32.5 µM | 43.8 µM | – | > 100 µM | 33 µM | > 100 µM | – | > 100 µM
8 | Nc1c2ccccc2nc2nccnc12 | > 100 µM | > 100 µM | > 100 µM | > 100 µM | > 100 µM | – | > 100 µM | > 100 µM | – | > 100 µM | > 100 µM | > 100 µM | > 100 µM | > 100 µM | > 100 µM | – | – | > 100 µM | – | –
9 | O=C1CCN(CCC(F)(F)C(F)(F)C(F)(F)C(F)(F)F)C(=S)N1 | > 100 µM | > 100 µM | > 100 µM | > 100 µM | > 100 µM | – | > 100 µM | > 100 µM | – | > 100 µM | > 100 µM | > 100 µM | > 100 µM | > 100 µM | > 100 µM | – | – | > 100 µM | – | –
10 | CC1(C)OC[C@@H]([C@H](C=O)OCc2ccccc2)O1 | > 100 µM | > 100 µM | – | > 100 µM | > 100 µM | > 100 µM | > 100 µM | > 100 µM | > 100 µM | > 100 µM | > 100 µM | > 100 µM | > 100 µM | > 100 µM | > 100 µM | > 100 µM | > 100 µM | > 100 µM | – | –
11 | CN1C[C@@H]2CC(=O)CC[C@@H]2C[C@H]1C#N | > 100 µM | > 100 µM | – | > 100 µM | > 100 µM | – | > 100 µM | > 100 µM | – | – | > 100 µM | > 100 µM | – | > 100 µM | – | – | – | > 100 µM | – | –
12 | CC(Cc1ccc(O)cn1)(NC(=O)c1ccccc1)C(=O)O (stereo not given) | > 100 µM | > 100 µM | > 100 µM | > 100 µM | > 100 µM | > 100 µM | > 100 µM | > 100 µM | > 100 µM | > 100 µM | > 100 µM | > 100 µM | > 100 µM | > 100 µM | > 100 µM | > 100 µM | > 100 µM | > 100 µM | – | –
13 | N#CC(NNC(=O)Cc1ccccc1)c1ccc(O)cc1 (stereo not given) | > 100 µM | > 100 µM | > 100 µM | > 100 µM | > 100 µM | – | > 100 µM | > 100 µM | – | > 100 µM | > 100 µM | – | > 100 µM | > 100 µM | > 100 µM | – | – | 97.5 µM | – | –
14 | C=CC(Br)(CBr)CCC1OC1(C)C (stereo not given) | 33.3 µM | 30.5 µM | 33.9 µM | 26.7 µM | 27.3 µM | 58.7 µM | 33.2 µM | 82 µM | 24.5 µM | 30.5 µM | 29.6 µM | 36.8 µM | 30.3 µM | 17.8 µM | 36.2 µM | 59.8 µM | 30.9 µM | 32.3 µM | – | –
15 | Brc1ccc2[nH]cc([C@@H]3CN[C@@H](c4c[nH]c5ccc(Br)cc45)CN3)c2c1 | 20.6 µM | 17.7 µM | 24.9 µM | 16.6 µM | 20.8 µM | 25.2 µM | 23.1 µM | 5.46 µM | – | 27.8 µM | 14.3 µM | 18.4 µM | 25.3 µM | 3.38 µM | 3.69 µM | 12.6 µM | 14.7 µM | 12.5 µM | – | 29.2 µM
16 | NC(=S)Nc1c(S(N)(=O)=O)cc(S(N)(=O)=O)c(Cl)c1Cl | > 100 µM | > 100 µM | > 100 µM | > 100 µM | > 100 µM | > 100 µM | > 100 µM | > 100 µM | > 100 µM | > 100 µM | > 100 µM | > 100 µM | > 100 µM | > 100 µM | > 100 µM | > 100 µM | > 100 µM | > 100 µM | – | –
17 | COc1ccc(/C=C2\C(=O)Nc3ccccc32)cc1OC | > 100 µM | > 100 µM | > 100 µM | > 100 µM | > 100 µM | – | > 100 µM | 64 µM | – | > 100 µM | > 100 µM | – | > 100 µM | > 100 µM | > 100 µM | – | – | 81.3 µM | – | –
18 | O=C(OC1C#CCSCC#C/C=C\1)c1cnc2ccccc2n1 (stereo not given) | > 100 µM | > 100 µM | > 100 µM | > 100 µM | – | > 100 µM | > 100 µM | – | > 100 µM | > 100 µM | 26.3 µM | > 100 µM | > 100 µM | > 100 µM | 30.8 µM | > 100 µM | > 100 µM | > 100 µM | – | –
19 | NC(=S)N/N=C/c1cn(CCCl)c2ccccc12 | > 100 µM | – | – | > 100 µM | 67.4 µM | – | > 100 µM | > 100 µM | – | > 100 µM | > 100 µM | > 100 µM | > 100 µM | > 100 µM | > 100 µM | – | – | 86 µM | – | –
20 | COC(=O)C(=O)C(C(=O)C(=O)Nc1ccccc1C(N)=O)c1nc2ccc([N+](=O)[O-])cc2[nH]c1=O (stereo not given) | > 100 µM | > 100 µM | > 100 µM | > 100 µM | > 100 µM | – | > 100 µM | > 100 µM | – | > 100 µM | > 100 µM | – | > 100 µM | > 100 µM | > 100 µM | – | – | > 100 µM | – | –
21 | CNc1cccc(-c2cc(=O)c3cc4c(cc3[nH]2)OCO4)c1 | 97.8 µM | > 100 µM | 0.573 µM | > 100 µM | 6.92 µM | 0.568 µM | – | – | – | > 100 µM | > 100 µM | – | 7.28 µM | > 72.2 µM | 0.63 µM | 8.87 µM | > 100 µM | – | – | > 100 µM
22 | CC1=N/C(=C\c2ccc(N)cc2)C(=O)N1Nc1nnc(NN2C(=O)/C(=C/c3ccc(N)cc3)N=C2C)c2ccccc12 | > 100 µM | > 100 µM | > 100 µM | > 100 µM | > 100 µM | – | 64.3 µM | > 100 µM | – | > 100 µM | > 100 µM | – | > 100 µM | > 100 µM | > 100 µM | – | – | > 100 µM | – | –
23 | COc1cc(Br)cc2c1O[C@H]1C(=O)CC3CC21CCN3C (stereo not given in full) | > 100 µM | – | > 100 µM | > 100 µM | > 100 µM | > 100 µM | > 100 µM | 63.4 µM | > 100 µM | > 100 µM | > 100 µM | > 100 µM | 68.2 µM | > 100 µM | > 100 µM | – | > 100 µM | – | – | 74 µM
24 | CC1OC(n2ccc3ccc([N+](=O)[O-])cc32)C(O)C(O)C1O (stereo not given) | > 100 µM | > 100 µM | > 100 µM | > 100 µM | > 100 µM | – | > 100 µM | > 100 µM | – | > 100 µM | > 100 µM | > 100 µM | > 100 µM | > 100 µM | > 100 µM | – | – | > 100 µM | – | –
